Test results published in patent publication US20190135834A1, “5-SUBSTITUTED AZABENZIMIDAZOLE DERIVATIVE HAVING ???? ACTIVATION ACTION” (Shionogi & Co., Ltd., priority 2016, published 2019).

Biological target: T1, Human AMPK α2ß2γ1 (Homo sapiens, UniProt O43741+P54646)
T1 construct: The full length cDNAs of human AMPK ß2 (NM_005399.3) and human AMPK α2 (NM_006252.3); The full length cDNAs of human AMPK ß2 (NM_005399.3); 6xHis (N); made in house; host or cells: Escherichia coli BL21 CodonPlus (DE3)-RIL
Test: Test Example 2: evaluation of an activator for AMP-activated protein kinase (AMPK), LabChip mobility shift assay with CaMKK2-phosphorylated enzyme
Format: biochemical
Conditions: for EC150 (compound concentration showing 150% relative to the control (100%)): FL-Peptide 7 substrate, 25° C., 2 hours; for Emax: relative to control (100%), read-out: Emax (maximum rate of increase in activity within the measurement range)
Procedure, shortened: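 E. coli-expressed His-tagged human AMPK α2β2γ1 preactivated with GST-CaMKK2 (0.2 mM ATP, 25° C, 1–1.5 h), preincubated 10 min with compound (1% DMSO), then reacted 2 h at 25° C with 3 μM FL-Peptide 7 and 0.4 mM ATP in substrate solution, pH 7.0. Mobility-shift conversion rate gives % activity increase over no-compound control.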

T1 sequence (P54646 whole entry): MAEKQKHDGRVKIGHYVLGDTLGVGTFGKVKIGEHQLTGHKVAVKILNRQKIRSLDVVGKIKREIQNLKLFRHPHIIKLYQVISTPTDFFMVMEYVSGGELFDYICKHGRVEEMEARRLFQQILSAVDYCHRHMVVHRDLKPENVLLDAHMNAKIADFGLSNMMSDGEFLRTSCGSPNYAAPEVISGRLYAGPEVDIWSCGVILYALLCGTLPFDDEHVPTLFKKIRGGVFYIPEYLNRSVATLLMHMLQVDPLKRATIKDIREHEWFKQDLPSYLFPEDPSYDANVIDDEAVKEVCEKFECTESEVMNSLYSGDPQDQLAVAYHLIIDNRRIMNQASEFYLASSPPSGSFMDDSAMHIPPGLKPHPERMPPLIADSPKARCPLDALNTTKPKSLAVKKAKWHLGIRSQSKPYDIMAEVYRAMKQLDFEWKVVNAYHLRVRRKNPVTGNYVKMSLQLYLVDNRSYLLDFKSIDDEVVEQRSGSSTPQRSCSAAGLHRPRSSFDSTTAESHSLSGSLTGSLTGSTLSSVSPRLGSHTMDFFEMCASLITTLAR
T1 sequence (O43741 whole entry): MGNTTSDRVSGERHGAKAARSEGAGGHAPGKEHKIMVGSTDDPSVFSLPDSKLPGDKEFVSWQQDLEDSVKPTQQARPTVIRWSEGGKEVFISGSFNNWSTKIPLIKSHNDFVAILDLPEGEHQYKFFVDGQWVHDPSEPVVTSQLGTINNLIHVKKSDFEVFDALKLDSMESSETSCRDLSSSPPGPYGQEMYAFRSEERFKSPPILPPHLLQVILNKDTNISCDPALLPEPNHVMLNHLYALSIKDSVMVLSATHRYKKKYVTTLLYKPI
T1 sequence (P54619 whole entry partner): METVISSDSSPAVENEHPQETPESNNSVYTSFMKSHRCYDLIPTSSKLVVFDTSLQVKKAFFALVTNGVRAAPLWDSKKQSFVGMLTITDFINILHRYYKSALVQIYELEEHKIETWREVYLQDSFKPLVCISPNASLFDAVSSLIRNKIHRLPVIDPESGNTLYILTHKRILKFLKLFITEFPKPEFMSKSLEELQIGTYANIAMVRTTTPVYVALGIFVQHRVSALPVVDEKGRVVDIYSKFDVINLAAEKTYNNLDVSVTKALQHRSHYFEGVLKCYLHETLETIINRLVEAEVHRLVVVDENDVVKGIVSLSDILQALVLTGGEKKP

## O[C@@H]1CO[C@H]2[C@@H]1OC[C@H]2Oc1nc2nc(N[C@H]3CCc4cc(C5=CCOC5)cc(F)c43)c(Cl)cc2[nH]1 [Compound I-2-47]
  EC150 (compound concentration showing 150% relative to the control (100%)): 2.3 nM
  Emax: 724%

## O[C@@H]1CO[C@H]2[C@@H]1OC[C@H]2Oc1nc2nc(N[C@H]3CCc4cc(-c5cncnc5)cc(F)c43)c(Cl)cc2[nH]1 [Compound I-2-61]
  EC150 (compound concentration showing 150% relative to the control (100%)): 3.1 nM
  Emax: 649%

## O[C@@H]1CO[C@H]2[C@@H]1OC[C@H]2Oc1nc2nc(NC3CCc4cc(OCCOC5CCC5)cc(F)c43)c(Cl)cc2[nH]1 (stereo partly drawn) [Compound I-2-41]
  EC150 (compound concentration showing 150% relative to the control (100%)): 10 nM
  Emax: 604%

## Cc1ncc(-c2cc(F)c3c(c2)CC[C@@H]3Nc2nc3nc(O[C@@H]4CO[C@H]5[C@@H]4OC[C@H]5O)[nH]c3cc2Cl)cn1 [Compound I-2-46]
  EC150 (compound concentration showing 150% relative to the control (100%)): 3.3 nM
  Emax: 708%

## CC(C)(O)COc1cc(F)c2c(c1)CCC2Nc1nc2nc(O[C@@H]3CO[C@H]4[C@@H]3OC[C@H]4O)[nH]c2cc1Cl (stereo partly drawn) [Compound I-2-09]
  EC150 (compound concentration showing 150% relative to the control (100%)): 3.9 nM
  Emax: 633%

## CCOc1ncc(-c2cc(F)c3c(c2)CC[C@@H]3Nc2nc3nc(O[C@@H]4CO[C@H]5[C@@H]4OC[C@H]5O)[nH]c3cc2Cl)cn1 [Compound I-2-71]
  EC150 (compound concentration showing 150% relative to the control (100%)): 8.6 nM
  Emax: 590%

## O[C@@H]1CO[C@H]2[C@@H]1OC[C@H]2Oc1nc2nc(N[C@H]3CCc4cc(-c5cnc(C6CC6)nc5)cc(F)c43)c(Cl)cc2[nH]1 [Compound I-2-57]
  EC150 (compound concentration showing 150% relative to the control (100%)): 11 nM
  Emax: 636%

## O[C@@H]1CO[C@H]2[C@@H]1OC[C@H]2Oc1nc2nc(N[C@H]3CCc4cc(/C=C/COC5CCCCO5)cc(F)c43)c(Cl)cc2[nH]1 (stereo partly drawn) [Compound I-2-39]
  EC150 (compound concentration showing 150% relative to the control (100%)): 11 nM
  Emax: 583%

## COCCOc1cnc2c(c1)CCC2Nc1nc2nc(O[C@@H]3CO[C@H]4[C@@H]3OC[C@H]4O)[nH]c2cc1Cl (stereo partly drawn) [Compound I-1-11]
  EC150 (compound concentration showing 150% relative to the control (100%)): 9.8 nM
  Emax: 606%

## NC(=O)COc1cnc2c(c1)CCC2Nc1nc2nc(O[C@@H]3CO[C@H]4[C@@H]3OC[C@H]4O)[nH]c2cc1Cl (stereo partly drawn) [Compound I-1-47]
  EC150 (compound concentration showing 150% relative to the control (100%)): 14 nM
  Emax: 390%

## COCC(=O)NCCOc1cc(F)c2c(c1)CCC2Nc1nc2nc(O[C@@H]3CO[C@H]4[C@@H]3OC[C@H]4O)[nH]c2cc1Cl (stereo partly drawn) [Compound I-2-33]
  EC150 (compound concentration showing 150% relative to the control (100%)): 3 nM
  Emax: 704%

## O[C@@H]1CO[C@H]2[C@@H]1OC[C@H]2Oc1nc2nc(NC3CCc4cc(-c5cnccn5)cc(F)c43)c(Cl)cc2[nH]1 (stereo partly drawn) [Compound I-1-111]
  EC150 (compound concentration showing 150% relative to the control (100%)): 4.5 nM
  Emax: 424%

## COCn1cc(-c2cc(F)c3c(c2)CC[C@@H]3Nc2nc3[nH]c(O[C@@H]4CO[C@H]5[C@@H]4OC[C@H]5O)nc3cc2Cl)cn1 [Compound I-2-17]
  EC150 (compound concentration showing 150% relative to the control (100%)): 1.4 nM
  Emax: 720%

## O[C@@H]1CO[C@H]2[C@@H]1OC[C@H]2Oc1nc2nc(NC3CCc4cc(OCCN5CCCC5)cc(F)c43)c(Cl)cc2[nH]1 (stereo partly drawn) [Compound I-1-97]
  EC150 (compound concentration showing 150% relative to the control (100%)): 2.1 nM
  Emax: 433%

## O[C@@H]1CO[C@H]2[C@@H]1OC[C@H]2Oc1nc2nc(NC3CCc4cc(OC5COC5)cc(F)c43)c(Cl)cc2[nH]1 (stereo partly drawn) [Compound I-2-51]
  EC150 (compound concentration showing 150% relative to the control (100%)): 4.7 nM
  Emax: 688%

## N#CCn1cc(-c2cc(F)c3c(c2)CC[C@@H]3Nc2nc3nc(O[C@@H]4CO[C@H]5[C@@H]4OC[C@H]5O)[nH]c3cc2Cl)cn1 [Compound I-2-78]
  EC150 (compound concentration showing 150% relative to the control (100%)): 2.5 nM
  Emax: 692%

## Cn1cc(-c2cc(F)c3c(c2)CCC3Nc2nc3nc(O[C@@H]4CO[C@H]5[C@@H]4OC[C@H]5O)[nH]c3cc2Cl)cn1 (stereo partly drawn) [Compound I-1-44]
  EC150 (compound concentration showing 150% relative to the control (100%)): 5.6 nM
  Emax: 422%

## CC(C)n1cc(-c2cc(F)c3c(c2)CC[C@@H]3Nc2nc3nc(O[C@@H]4CO[C@H]5[C@@H]4OC[C@H]5O)[nH]c3cc2Cl)ccc1=O [Compound I-2-48]
  EC150 (compound concentration showing 150% relative to the control (100%)): 6.2 nM
  Emax: 737%
